# Results taken from patent US8268849B2, “Multifunctional Antioxidants and methods of use thereof” (priority 2007, dated 2012).
# Tests used:
# [1] = Chelation study by ESI-MS, Fe^3+ solution; format: binding; conditions: 10:1 metal:compound, 45 minutes of mixing
# Protocol: (§1) The relative amount of ions bound by JHX-1-JHX-8 was determined by electrospray ionization mass spectrometry (ESI-MS) according to the method of Baron and Hering (Baron and Hering (1998) Spectrometry J. Environ. Qual., 27:844-850). In this method solutions containing Fe^2+, Fe^3+, Cu^1+, Cu^2+, Zn^2+, Ca^2+, Mg^2+ were mixed with compound in ratios of 10:1, 1:1, and 1:10. After 45 minutes of mixing, each solution was directly infused into the MS with constant ionization energy and the relative decreases of the parent peaks in these solutions were determined. […] FIG. 3 illustrates ion binding with increased Fe^+2 concentrations results in decreased compound parent peak heights by ESI-MS when compounds contain appropriate functional groups for metal ion chelation.
# [2] = test system: diabetic cataract formation; test: Cataract formation in diabetic rats; format: in vivo; conditions: for blood sugar / toxic effects: diabetic rats; for delay of vacuole formation / delay of cortical cataracts / lens sorbitol levels: streptozotocin diabetic rats; for delay of vacuole formation / delay of cortical cataracts: 0.025% in chow; for delay of vacuole formation: versus untreated diabetic group (14 days); for delay of cortical cataracts: versus untreated diabetic group (29 days); for lens sorbitol levels: end of study (47 days)
# Protocol: (§2) Diabetes was induced in 100 g Sprague Dawley rats with streptozotocin injection (75 mg/kg) and all rats with blood sugar levels >300 mg/dL were divided into 4 groups of 8 rats each. One group received only standard rat chow (untreated diabetic) while each of the other groups received chow containing either 0.0125% ARI Al1576, 0.025% JHX-4 or 0.025% JHX-8. Lens changes were monitored by at 3-5 day intervals by slit lamp following tropicamide mydriasis. As summarized in FIGS. 8A-8C, vacuole formation began by 14 days in the untreated diabetic group with cortical opacities observed by 29 days and mature cataracts by 44 days. […] In the two antioxidant treated groups, vacuole formation was delayed by 19 and 11 days by JHX-4 and JHX-8, respectively, and cortical cataracts by 9 and 3 days, respectively. At the end of the study (47 days) all rats were equally diabetic with HbA1C levels >11.9%. All eyes were enucleated and lens sorbitol levels were measured as previously described (Kador et al. (2007) J. Ocul. Pharmacol. Ther., 23:116-23). […] Tissue levels of JHX-4 and -8 in the lens, neural retina and brain were determined after 47 days of feeding as described above (FIG. 10). […] Overall drug levels in both the lens and retina were ca. 3-fold higher in the diabetic rats with brain levels also now present. This increase may be due to either an accumulation of drug, or increased permeability of tissues and the BBB to drug in streptozotocin diabetic rats (Mooradian et al. (2005) Diabetes, 54:2977-82).
# [3] = Drug levels in target tissues after oral administration; format: in vivo, Sprague Dawley rats; conditions: normal young rats; for drug detected in the brain: chow containing 0.05% drug for 6 days; for Lens drug level / retinal drug level: chow containing 0.05% drug for 6 days (80±10 mg/kg/day), HPLC; for retinal drug level: posterior segment
# Protocol: (§3) To determine whether JHX-4 and JHX-8 can reach the target tissues of lens, retina and brain after oral administration, two groups of 4 young (100 g) Sprague Dawley rats were administered rat chow containing 0.05% of either drug for 6 days. […] Lens and posterior segments were homogenized in glass homogenizers in ice-cold PBS, pH 7.4, after addition of an aliquot of JHX-1 as an internal standard. The homogenates were deproteinized with 48 mM NaF and centrifuged. The supernatant was extracted with acetone. The acetone extract was evaporated under vacuum and the residue was dissolved in acetonitrile. Whole brains were similarly extracted; however, brain homogenates were deproteinized with equal amounts of 0.3 N Na2SO4 and 0.3 N Ba(OH)2. Drug levels were measured by reverse-phase HPLC with a Phenomenex LUNA 5 μm C18 column and an isocratic elution of 1:1 MeOH:Water. Detection was conducted at 245 nm and compound levels were quantified using standard curves. Lens and retinal drug levels were 200±11 and 1373±38 ng/mg protein for JHX-4 and 90±5 and 1060±12 ng/mg protein for JHX-8 respectively. Only trace amounts of either compound were detected in the brain.
# [4] = Tissue drug levels in diabetic rats after 47 days of feeding; format: in vivo, Sprague Dawley rats
# Protocol: as §3, §2
# [5] = Chelation studies by ESI-MS, overall statement on ion binding; conditions: binding order Cu^1+=Cu^2+>Fe^2+=Fe^3+>Zn^2+; no binding with Ca^2+ or Mg^2+
# Protocol: as §1
# [6] = Chelation study by ESI-MS, Cu^1+ solution; format: binding; conditions: 10:1 metal:compound, 45 minutes of mixing
# Protocol: as §1
# [7] = Chelation study by ESI-MS, Ca^2+ solution; format: binding; conditions: 10:1 metal:compound, 45 minutes of mixing
# Protocol: as §1
# [8] = Chelation study by ESI-MS, Fe^2+ solution; format: binding; conditions: 10:1 metal:compound, 45 minutes of mixing
# Protocol: as §1
smiles,measurement,setting,value
"COc1nc(N2CC(=O)N(S(=O)(=O)N(C)C)C(=O)C2)nc(OC)c1O [JHX-8, 1-N,N′-dimethylsulfamoyl-4-(4,6-dimethoxy-5-hydroxy-2-pyrimidyl)piperazine-2,6-dione]",% Parent Peak Remaining at 10:1 Solution of Metal:Compound,[1],8.2%
same,blood sugar,[2],did not alter
same,toxic effects,[2],No apparent toxic effects
same,delay of vacuole formation,[2],11 days
same,delay of cortical cataracts,[2],3 days
same,lens sorbitol levels,[2],did not alter
same,drug detected in the brain,[3],trace amounts
same,Lens drug level,[3],90±5 ng/mg protein
same,retinal drug level,[3],1060±12 ng/mg protein
same,brain levels of drug,[4],now present
same,"drug levels in both the lens and retina, diabetic rats versus normal rats",[4],ca. 3 fold
same,ion binding,[5],bind ions
same,% Parent Peak Remaining at 10:1 Solution of Metal:Compound,[6],4.0%
same,% Parent Peak Remaining at 10:1 Solution of Metal:Compound,[7],100.0%
same,% Parent Peak Remaining at 10:1 Solution of Metal:Compound,[8],7.5%
"CN(C)S(=O)(=O)N1C(=O)CN(c2ncc(O)cn2)CC1=O [JHX-4, 1-N,N′-dimethylsulfamoyl-4-(5-hydroxy-2-pyrimidyl)piperazine-2,6-dione]",% Parent Peak Remaining at 10:1 Solution of Metal:Compound,[1],8.2%
same,blood sugar,[2],did not alter
same,toxic effects,[2],No apparent toxic effects
same,delay of vacuole formation,[2],19 days
same,delay of cortical cataracts,[2],9 days
same,lens sorbitol levels,[2],did not alter
same,drug detected in the brain,[3],trace amounts
same,Lens drug level,[3],200±11 ng/mg protein
same,retinal drug level,[3],1373±38 ng/mg protein
same,brain levels of drug,[4],now present
same,"drug levels in both the lens and retina, diabetic rats versus normal rats",[4],ca. 3 fold
same,ion binding,[5],bind ions
same,% Parent Peak Remaining at 10:1 Solution of Metal:Compound,[6],4.2%
same,% Parent Peak Remaining at 10:1 Solution of Metal:Compound,[7],100.0%
same,% Parent Peak Remaining at 10:1 Solution of Metal:Compound,[8],6.9%
